pIC50: −log10 of the molar value. *1 amine or outer side, *2 acyl side, *3 side chain or, on linkers, in order; H or OH if unused. Where a SMILES comes first, the peptide text is derived from it. [ ]: non-standard residue; d: D form. Trp(4-Cl)(βS-Me) = C[C@@H](c1c[nH]c2cccc(Cl)c12)[C@H](N)C(=O)O; Trp(βS-Me,4-F) = C[C@@H](c1c[nH]c2cccc(F)c12)[C@H](N)C(=O)O; Bip(4'-COOH) = N[C@@H](Cc1ccc(-c2ccc(C(=O)O)cc2)cc1)C(=O)O; Phe(4-COOH) = N[C@@H](Cc1ccc(C(=O)O)cc1)C(=O)O; Pro(4R-NH2) = N[C@H]1CN[C@H](C(=O)O)C1; X7 = O=C([C@H](CCN1CCOCC1)N[*:1])[*:2]; 1Nal = N[C@@H](Cc1cccc2ccccc12)C(=O)O; AEF = NCCOc1ccc(C[C@H](N)C(=O)O)cc1; hTyr = N[C@@H](CCc1ccc(O)cc1)C(=O)O; hPhe = N[C@@H](CCc1ccccc1)C(=O)O; Dap(Me2) = CN(C)C[C@H](N)C(=O)O; dDab = NCC[C@@H](N)C(=O)O; hSer = N[C@@H](CCO)C(=O)O; dNMeA = CN[C@H](C)C(=O)O; Dab = NCC[C@H](N)C(=O)O; Dap = NC[C@H](N)C(=O)O
target: T1, Recombinant human IL-1β (Homo sapiens, UniProt P01584); assay: IL-6 assay in MRC5 cells: inhibition of IL-1β induced IL-6 secretion (AlphaLISA); format: cell-based; conditions: inhibition of IL-1β induced IL-6 secretion in MRC5 cells; read-out: MRC5 IC50
T1 construct: purchased BioLegend 579404
Summary of the method: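 IL-1β at 2×EC80 in seeding medium (EMEM, 0.025% BSA) preincubated 1 h at ambient temperature with compound, then 3000 MRC5 cells/well added and incubated overnight at 37 °C, 5% CO2. IL-6 in conditioned medium quantified by AlphaLISA; IC50 from 4-parameter logistic fit.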

T1 sequence (P01584 117-269): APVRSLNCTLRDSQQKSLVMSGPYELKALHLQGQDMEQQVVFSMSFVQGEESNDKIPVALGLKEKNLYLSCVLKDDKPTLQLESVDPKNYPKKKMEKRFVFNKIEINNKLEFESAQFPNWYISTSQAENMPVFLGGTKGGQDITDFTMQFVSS

| Compound | pIC50 |
| --- | --- |
| CC(=O)NCCOc1ccc(C[C@@H]2NC(=O)[C@H](CCc3ccc(O)cc3)NC(=O)[C@@H](C)NC(=O)[C@H](CCN3CCOCC3)NC(=O)[C@H](Cc3c[nH]c4ccccc34)NC(=O)[C@H](Cc3ccc(-c4ccc(C(=O)O)cc4)cc3)NC(=O)CNC(=O)[C@@H](C)N(C)C(=O)[C@H](CC(=O)O)NC(=O)[C@H]([C@@H](C)c3c[nH]c4cccc(Cl)c34)NC(=O)[C@@H]3C[C@@H](N)CN3C(=O)CNC(=O)[C@H](Cc3ccc(C(=O)O)cc3)NC(=O)[C@H](Cc3c[nH]c4ccccc34)NC2=O)cc1 [Example 141] (cyclo([AEF](Ac)W[Phe(4-COOH)]G[Pro(4R-NH2)][Trp(4-Cl)(βS-Me)]D[dNMeA]G[Bip(4'-COOH)]W[X7][dA][hTyr])) | 9.75 |
| CC(=O)NCCOc1ccc(C[C@@H]2NC(=O)[C@H](CCc3ccccc3)NC(=O)[C@@H](C)NC(=O)[C@H](CCN)NC(=O)[C@H](Cc3c[nH]c4ccccc34)NC(=O)[C@H](Cc3ccc(-c4ccc(C(=O)O)cc4)cc3)NC(=O)CNC(=O)[C@@H](C)N(C)C(=O)[C@H](CC(=O)O)NC(=O)[C@H]([C@@H](C)c3c[nH]c4cccc(Cl)c34)NC(=O)[C@@H]3C[C@@H](N)CN3C(=O)CNC(=O)[C@H](Cc3ccc(C(=O)O)cc3)NC(=O)[C@H](Cc3c[nH]c4ccccc34)NC2=O)cc1 [Example 142] (cyclo([AEF](Ac)W[Phe(4-COOH)]G[Pro(4R-NH2)][Trp(4-Cl)(βS-Me)]D[dNMeA]G[Bip(4'-COOH)]W[Dab][dA][hPhe])) | 9.80 |
| CC(=O)NCCOc1ccc(C[C@@H]2NC(=O)[C@H](CCc3ccc(O)cc3)NC(=O)[C@@H](C)NC(=O)[C@H](CCN)NC(=O)[C@H](Cc3c[nH]c4ccccc34)NC(=O)[C@H](Cc3ccc(-c4ccc(C(=O)O)cc4)cc3)NC(=O)CNC(=O)[C@@H](C)N(C)C(=O)[C@H](CC(=O)O)NC(=O)[C@H]([C@@H](C)c3c[nH]c4cccc(Cl)c34)NC(=O)[C@@H]3C[C@@H](N)CN3C(=O)CNC(=O)[C@H](Cc3ccc(C(=O)O)cc3)NC(=O)[C@H](Cc3c[nH]c4ccccc34)NC2=O)cc1 [Example 143] (cyclo([AEF](Ac)W[Phe(4-COOH)]G[Pro(4R-NH2)][Trp(4-Cl)(βS-Me)]D[dNMeA]G[Bip(4'-COOH)]W[Dab][dA][hTyr])) | 9.64 |
| CC(=O)NCCOc1ccc(C[C@@H]2NC(=O)[C@H](CCc3ccccc3)NC(=O)[C@@H](C)NC(=O)[C@H](CN)NC(=O)[C@H](Cc3c[nH]c4ccccc34)NC(=O)[C@H](Cc3ccc(-c4ccc(C(=O)O)cc4)cc3)NC(=O)CNC(=O)[C@@H](C)N(C)C(=O)[C@H](CC(=O)O)NC(=O)[C@H]([C@@H](C)c3c[nH]c4cccc(Cl)c34)NC(=O)[C@@H]3C[C@@H](N)CN3C(=O)CNC(=O)[C@H](Cc3ccc(C(=O)O)cc3)NC(=O)[C@H](Cc3c[nH]c4ccccc34)NC2=O)cc1 [Example 144] (cyclo([AEF](Ac)W[Phe(4-COOH)]G[Pro(4R-NH2)][Trp(4-Cl)(βS-Me)]D[dNMeA]G[Bip(4'-COOH)]W[Dap][dA][hPhe])) | 10.13 |
| CC(=O)NCCOc1ccc(C[C@@H]2NC(=O)[C@H](CCc3ccc(O)cc3)NC(=O)[C@@H](C)NC(=O)[C@H](CN(C)C)NC(=O)[C@H](Cc3c[nH]c4ccccc34)NC(=O)[C@H](Cc3ccc(-c4ccc(C(=O)O)cc4)cc3)NC(=O)CNC(=O)[C@@H](C)N(C)C(=O)[C@H](CC(=O)O)NC(=O)[C@H]([C@@H](C)c3c[nH]c4cccc(Cl)c34)NC(=O)[C@@H]3C[C@@H](N)CN3C(=O)CNC(=O)[C@H](Cc3ccc(C(=O)O)cc3)NC(=O)[C@H](Cc3c[nH]c4ccccc34)NC2=O)cc1 [Example 146] (cyclo([AEF](Ac)W[Phe(4-COOH)]G[Pro(4R-NH2)][Trp(4-Cl)(βS-Me)]D[dNMeA]G[Bip(4'-COOH)]W[Dap(Me2)][dA][hTyr])) | 9.94 |
| CC(=O)NCCOc1ccc(C[C@@H]2NC(=O)[C@H](CCc3ccc(O)cc3)NC(=O)[C@@H](CCN)NC(=O)[C@H](CC(C)C)NC(=O)[C@H](Cc3c[nH]c4ccccc34)NC(=O)[C@H](Cc3ccc(-c4ccc(C(=O)O)cc4)cc3)NC(=O)CNC(=O)[C@@H](C)N(C)C(=O)[C@H](CC(=O)O)NC(=O)[C@H]([C@@H](C)c3c[nH]c4cccc(Cl)c34)NC(=O)[C@@H]3C[C@@H](N)CN3C(=O)CNC(=O)[C@H](Cc3ccc(C(=O)O)cc3)NC(=O)[C@H](Cc3c[nH]c4ccccc34)NC2=O)cc1 [Example 149] (cyclo([AEF](Ac)W[Phe(4-COOH)]G[Pro(4R-NH2)][Trp(4-Cl)(βS-Me)]D[dNMeA]G[Bip(4'-COOH)]WL[dDab][hTyr])) | 9.09 |
| CC(=O)NCCOc1ccc(C[C@@H]2NC(=O)[C@H](CCc3ccccc3)NC(=O)[C@@H](C)NC(=O)[C@H](CO)NC(=O)[C@H](Cc3c[nH]c4ccccc34)NC(=O)[C@H](Cc3ccc(-c4ccc(C(=O)O)cc4)cc3)NC(=O)CNC(=O)[C@@H](C)N(C)C(=O)[C@H](CC(=O)O)NC(=O)[C@H]([C@@H](C)c3c[nH]c4cccc(Cl)c34)NC(=O)[C@@H]3C[C@@H](N)CN3C(=O)CNC(=O)[C@H](Cc3ccc(C(=O)O)cc3)NC(=O)[C@H](Cc3c[nH]c4ccccc34)NC2=O)cc1 [Example 150] (cyclo([AEF](Ac)W[Phe(4-COOH)]G[Pro(4R-NH2)][Trp(4-Cl)(βS-Me)]D[dNMeA]G[Bip(4'-COOH)]WS[dA][hPhe])) | 10.20 |
| COC[C@@H]1NC(=O)[C@H](Cc2c[nH]c3ccccc23)NC(=O)[C@H](Cc2ccc(-c3ccc(C(=O)O)cc3)cc2)NC(=O)CNC(=O)[C@@H](C)N(C)C(=O)[C@H](CC(=O)O)NC(=O)[C@H]([C@@H](C)c2c[nH]c3cccc(Cl)c23)NC(=O)[C@@H]2C[C@@H](N)CN2C(=O)CNC(=O)[C@H](Cc2ccc(C(=O)O)cc2)NC(=O)[C@H](Cc2c[nH]c3ccccc23)NC(=O)[C@H](Cc2ccc(OCCNC(C)=O)cc2)NC(=O)[C@H](CCc2ccccc2)NC(=O)[C@@H](C)NC1=O [Example 152] (cyclo([AEF](Ac)W[Phe(4-COOH)]G[Pro(4R-NH2)][Trp(4-Cl)(βS-Me)]D[dNMeA]G[Bip(4'-COOH)]WS(Me)[dA][hPhe])) | 10.22 |
| CC(=O)NCCOc1ccc(C[C@@H]2NC(=O)[C@H](CCc3ccc(O)cc3)NC(=O)[C@@H](C)NC(=O)[C@H](CCN)NC(=O)[C@H](Cc3cccc4ccccc34)NC(=O)[C@H](Cc3ccc(-c4ccc(C(=O)O)cc4)cc3)NC(=O)CNC(=O)[C@@H](C)N(C)C(=O)[C@H](CC(=O)O)NC(=O)[C@H]([C@@H](C)c3c[nH]c4cccc(F)c34)NC(=O)[C@@H]3C[C@@H](N)CN3C(=O)CNC(=O)[C@H](Cc3ccc(C(=O)O)cc3)NC(=O)[C@H](Cc3c[nH]c4ccccc34)NC2=O)cc1 [Example 154] (cyclo([AEF](Ac)W[Phe(4-COOH)]G[Pro(4R-NH2)][Trp(βS-Me,4-F)]D[dNMeA]G[Bip(4'-COOH)][1Nal][Dab][dA][hTyr])) | 9.71 |

More lines, now with the values ahead:

| pIC50 | Compound |
| --- | --- |
| 10.13 | CC(=O)NCCOc1ccc(C[C@@H]2NC(=O)[C@H](CCc3ccc(O)cc3)NC(=O)[C@@H](C)NC(=O)[C@H](CN)NC(=O)[C@H](Cc3c[nH]c4ccccc34)NC(=O)[C@H](Cc3ccc(-c4ccc(C(=O)O)cc4)cc3)NC(=O)CNC(=O)[C@@H](C)N(C)C(=O)[C@H](CC(=O)O)NC(=O)[C@H]([C@@H](C)c3c[nH]c4cccc(Cl)c34)NC(=O)[C@@H]3C[C@@H](N)CN3C(=O)CNC(=O)[C@H](Cc3ccc(C(=O)O)cc3)NC(=O)[C@H](Cc3c[nH]c4ccccc34)NC2=O)cc1 [Example 145] (cyclo([AEF](Ac)W[Phe(4-COOH)]G[Pro(4R-NH2)][Trp(4-Cl)(βS-Me)]D[dNMeA]G[Bip(4'-COOH)]W[Dap][dA][hTyr])) |
| 10.03 | COCC[C@@H]1NC(=O)[C@H](Cc2c[nH]c3ccccc23)NC(=O)[C@H](Cc2ccc(-c3ccc(C(=O)O)cc3)cc2)NC(=O)CNC(=O)[C@@H](C)N(C)C(=O)[C@H](CC(=O)O)NC(=O)[C@H]([C@@H](C)c2c[nH]c3cccc(Cl)c23)NC(=O)[C@@H]2C[C@@H](N)CN2C(=O)CNC(=O)[C@H](Cc2ccc(C(=O)O)cc2)NC(=O)[C@H](Cc2c[nH]c3ccccc23)NC(=O)[C@H](Cc2ccc(OCCNC(C)=O)cc2)NC(=O)[C@H](CCc2ccc(O)cc2)NC(=O)[C@@H](C)NC1=O [Example 147] (cyclo([AEF](Ac)W[Phe(4-COOH)]G[Pro(4R-NH2)][Trp(4-Cl)(βS-Me)]D[dNMeA]G[Bip(4'-COOH)]W[hSer](Me)[dA][hTyr])) |
| 10.32 | CC(=O)NCCOc1ccc(C[C@@H]2NC(=O)[C@H](CCc3ccc(O)cc3)NC(=O)[C@@H](C)NC(=O)[C@H](CC(C)C)NC(=O)[C@H](Cc3c[nH]c4ccccc34)NC(=O)[C@H](Cc3ccc(-c4ccc(C(=O)O)cc4)cc3)NC(=O)CNC(=O)[C@@H](C)N(C)C(=O)[C@H](CC(=O)O)NC(=O)[C@H]([C@@H](C)c3c[nH]c4cccc(Cl)c34)NC(=O)[C@@H]3C[C@@H](N)CN3C(=O)CNC(=O)[C@H](Cc3ccc(C(=O)O)cc3)NC(=O)[C@H](Cc3c[nH]c4ccccc34)NC2=O)cc1 [Example 148] (cyclo([AEF](Ac)W[Phe(4-COOH)]G[Pro(4R-NH2)][Trp(4-Cl)(βS-Me)]D[dNMeA]G[Bip(4'-COOH)]WL[dA][hTyr])) |
| 10.12 | CC(=O)NCCOc1ccc(C[C@@H]2NC(=O)[C@H](CCc3ccc(O)cc3)NC(=O)[C@@H](C)NC(=O)[C@H](CO)NC(=O)[C@H](Cc3c[nH]c4ccccc34)NC(=O)[C@H](Cc3ccc(-c4ccc(C(=O)O)cc4)cc3)NC(=O)CNC(=O)[C@@H](C)N(C)C(=O)[C@H](CC(=O)O)NC(=O)[C@H]([C@@H](C)c3c[nH]c4cccc(Cl)c34)NC(=O)[C@@H]3C[C@@H](N)CN3C(=O)CNC(=O)[C@H](Cc3ccc(C(=O)O)cc3)NC(=O)[C@H](Cc3c[nH]c4ccccc34)NC2=O)cc1 [Example 151] (cyclo([AEF](Ac)W[Phe(4-COOH)]G[Pro(4R-NH2)][Trp(4-Cl)(βS-Me)]D[dNMeA]G[Bip(4'-COOH)]WS[dA][hTyr])) |
| 10.06 | COC[C@@H]1NC(=O)[C@H](Cc2c[nH]c3ccccc23)NC(=O)[C@H](Cc2ccc(-c3ccc(C(=O)O)cc3)cc2)NC(=O)CNC(=O)[C@@H](C)N(C)C(=O)[C@H](CC(=O)O)NC(=O)[C@H]([C@@H](C)c2c[nH]c3cccc(Cl)c23)NC(=O)[C@@H]2C[C@@H](N)CN2C(=O)CNC(=O)[C@H](Cc2ccc(C(=O)O)cc2)NC(=O)[C@H](Cc2c[nH]c3ccccc23)NC(=O)[C@H](Cc2ccc(OCCNC(C)=O)cc2)NC(=O)[C@H](CCc2ccc(O)cc2)NC(=O)[C@@H](C)NC1=O [Example 153] (cyclo([AEF](Ac)W[Phe(4-COOH)]G[Pro(4R-NH2)][Trp(4-Cl)(βS-Me)]D[dNMeA]G[Bip(4'-COOH)]WS(Me)[dA][hTyr])) |
